Results published in PMC9138102, “The Role of ZIP9 and Androgen Receptor in the Establishment of Tight Junctions between Adult Rat Sertoli Cells” (Biology, 2022).

Key:
AR protein = AR protein silencing in PASC1 cells, immunofluorescence; type: cell-based, rat; settings: 48 h siRNA
Procedure: PASC1 cells were plated at a density of 3.0 × 10^4 on 24-well plates (1 mL/well) and incubated 48 h at 37 °C and 5% CO2 until a confluence of roughly 80% was reached. Cells were rinsed with DPBS and fixed with 100% ice-cold methanol (Roth, Karlsruhe, Germany) on ice for 10 min directly or after stimulation with vehicle, 10 nM testosterone, or 1 µM P1 for 24 h. Cells were then washed with DPBS three times for 5 min, and then incubated in blocking solution (PBS with 3% BSA and 0.3% Triton X-100, both from Sigma-Aldrich) for 1 h at room temperature. The blocking solution was replaced by fresh blocking solution containing the primary antibodies for detection of either AR, p-Erk1/2, p-CREB/p-ATF-1, claudin-1 (Cldn-1), or zonula occludens-1 (ZO-1) (Supplementary Table S1) and incubated overnight at 4 °C. […] After washing 3 times with DPBS, images were obtained using an inverse Olympus IX81 microscope equipped with a fluorescence system. A total of 30 cells from 3 independent experiments (30 × 3) localized closest to the diagonals of the square optical field were selected and the manually surrounded green fluorescence was quantified by ImageJ (available at http://rsbweb.nih.gov/ij/, last accessed 28 February 2022) following the protocol of the software provider. The data obtained were analyzed by GraphPad Prism5 (GraphPad Software, Inc., La Jolla, CA, USA). […]

AR-specific mRNA = test: AR mRNA silencing in PASC1 cells, qRT-PCR; type: cell-based, rat; settings: 48 h siRNA
Procedure: (§1) Primers were designed with http://www.ncbi.nlm.nih.gov/tools/primer-blast (Accessed on 28 February 2022) and were all intron-spanning. Total RNA was isolated from PASC1 with the RNeasy Mini-Kit (Qiagen, Hilden, Germany) and subjected to DNase I treatment as described by the manufacturer. The Reverse Transcription-System first strand cDNA synthesis kit (Invitrogen, Darmstadt, Germany) was used for cDNA synthesis, as recommended. Quantitative real-time PCR (qRT-PCR) amplification was performed in duplicate with iQ TM SYBR Green Super-mix (Bio-Rad; Munich; Germany) on the iCycler iQ System (Bio-Rad). After an initial heating at 94 °C for 5 min, 40 amplification cycles were performed consisting of an initial denaturation of the DNA double strands at 94 °C for 14 s, an annealing phase of the primers at 59 °C for 30 s, and extension of the primers for 15 s at 72 °C. A finalizing extension at 72 °C was carried out for 10 min. Gene expression was measured after reaching the ct value and calculated using the Delta–Delta Ct method. Detection of GAPDH-specific mRNA/cDNA served as normalization of the quantification. Oligonucleotides used in the qRT-PCR, their annealing position, and the expected size of the amplificates are listed in Supplementary Table S2. […]

[1] = test system: androgen binding site of ZIP9; test: T-BSA-FITC plasma membrane labeling of PASC1 cells and its displacement; settings: PASC1 cells, n = 28
Procedure: PASC1 cells were cultured as described above in 24-well plates at a density of 3 × 10^3 cells/well until reaching a confluence of approximately 80%. The cells were then treated with either 10 nM testosterone or 1 µM of P1 for 1 h. Controls received only the testosterone vehicle (ethanol). […] The medium was then removed by aspiration. In order to label nuclei, cells were fixed at room temperature with 3.7% formaldehyde that contained 20 ng of 4,6-diamino-2-phenylindole (DAPI). After 15 min, the formaldehyde/DAPI solution was removed by aspiration. Cells were washed with Dulbecco’s phosphate-buffered saline (DPBS, Gibco, Schwerte, Germany) and then overlayed with 400 µL PBS before imaging. Images were taken by an inverse Olympus IX81 microscope (Olympus, Hamburg, Germany).

ZIP9 protein = ZIP9 protein silencing in PASC1 cells, immunofluorescence; type: cell-based, rat; settings: 48 h siRNA
ZIP9-specific mRNA = test: ZIP9 mRNA silencing in PASC1 cells, qRT-PCR; type: cell-based, rat; settings: 48 h siRNA
Procedure: as §1

[2] = test system: androgen binding site ZIP9 of L6 myoblasts; settings: cited from earlier work
[3] = test system: androgen binding site ZIP9 of the Sertoli cell line 93RS2; set-up: method as in PMID 35053053, PMID 35053017; settings: 93RS2 cells; cited from earlier work

Substance: AR-siRNA: 5′CCGGAAAUGUUAUGAAGCAtt3′ plus 5′ UGCUUCAUAACAUUUCCGGag 3′ (AR-siRNA for AR silencing) (chain 1 CCGGAAAUGUUAUGAAGCATT; chain 2 UGCUUCAUAACAUUUCCGGAG; Commercial Silencer Select siRNA, lowercase 3' overhang letters not explained, further chemistry not given here)
- Expression of AR protein (AR protein): also prevented
- Expression of AR-specific mRNA (AR-specific mRNA): greatly suppressed

Substance: BSA-FITC: BSA-FITC (lacking testosterone)
- Membrane labeling by BSA-FITC (non-specific binding) ([1]; 10 µM BSA-FITC, pH 7.2, 20 min, room temperature): failed to label the membrane structure

Substance: ZIP9-directed siRNA: 5′ GGAUUAAGUAAGAGCAGUAtt3′ and 5′ UACUGCUCUUACUUAAUCCta 3′ (ZIP9-siRNA for ZIP9 silencing) (chain 1 GGAUUAAGUAAGAGCAGUATT; chain 2 UACUGCUCUUACUUAAUCCTA; Commercial Silencer Select siRNA, lowercase 3' overhang letters not explained, further chemistry not given here)
- Expression of ZIP9 protein (ZIP9 protein): similarly successful in preventing expression
- Expression of ZIP9 mRNA (ZIP9-specific mRNA): similarly successful in preventing expression

Substance: testosterone 3-(O-carboxymethyl)-oxime:bovine serum albumin-fluorescein isothiocyanate conjugate [T-BSA-FITC]
- Membrane labeling ([1]; 10 µM T-BSA-FITC, pH 7.2, 20 min, room temperature, nc-siRNA treated, fluorescence): label the surface of PASC1 cells
- Membrane labeling after ZIP9 knockdown ([1]; ZIP9 expression suppressed by siRNA, 10 µM T-BSA-FITC): suppression of its expression by siRNA prevented the binding of T-BSA-FITC
- Labeling of androgen binding site of ZIP9 [2]: suitable to label the androgen binding site ZIP9 of the Sertoli cell line 93RS2 and also of L6 myoblasts
- Labeling of androgen binding site of ZIP9 [3]: suitable to label the androgen binding site ZIP9 of the Sertoli cell line 93RS2
